Measured values: the supplement of paper PMC10307832

How the values were obtained:
Test in all cases: relative viability (nuclei count vs DMSO), 5 days (fraction); higher = more cells survive
Cabozantinib + OSI-027 = compound: COc1cc2nccc(Oc3ccc(NC(=O)C4(C(=O)Nc5ccc(F)cc5)CC4)cc3)c2cc1OC [Cabozantinib] + COc1cccc2cc(-c3nc([C@H]4CC[C@H](C(=O)O)CC4)n4ncnc(N)c34)[nH]c12 [OSI-027] (partner 0.5 µM)
Procedure, shortened: (§1)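 Dosing by pin tool came one day after lung cancer cell lines were seeded in 1536-well plates, using either one drug or a fixed anchor-drug dose plus five library-drug doses (not always all listed) in √10 steps. After 5 days, nuclei were counted on 4× images. Relative viability is treated-well nuclei count divided by vehicle-well nuclei count, and values are medians of duplicate plates.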

Cabozantinib + Olaparib = compound: COc1cc2nccc(Oc3ccc(NC(=O)C4(C(=O)Nc5ccc(F)cc5)CC4)cc3)c2cc1OC [Cabozantinib] + O=C(c1cc(Cc2n[nH]c(=O)c3ccccc23)ccc1F)N1CCN(C(=O)C2CC2)CC1 [Olaparib] (partner 8 µM)
Procedure, shortened: as §1

Zosuquidar + Pictilisib = compound: O[C@@H](COc1cccc2ncccc12)CN1CCN([C@@H]2c3ccccc3[C@@H]3[C@H](c4ccccc42)C3(F)F)CC1 [Zosuquidar] + CS(=O)(=O)N1CCN(Cc2cc3nc(-c4cccc5[nH]ncc45)nc(N4CCOCC4)c3s2)CC1 [Pictilisib] (partner 1 µM)
Procedure, shortened: as §1

Zosuquidar + Olaparib = compound: O[C@@H](COc1cccc2ncccc12)CN1CCN([C@@H]2c3ccccc3[C@@H]3[C@H](c4ccccc42)C3(F)F)CC1 [Zosuquidar] + O=C(c1cc(Cc2n[nH]c(=O)c3ccccc23)ccc1F)N1CCN(C(=O)C2CC2)CC1 [Olaparib] (partner 8 µM)
Procedure, shortened: as §1

Cell Line | relative viability (Cabozantinib + OSI-027; first compound 0.02 µM) | relative viability (Cabozantinib + OSI-027; first compound 0.06325 µM) | relative viability (Cabozantinib + OSI-027; first compound 0.2 µM) | relative viability (Cabozantinib + OSI-027; first compound 0.6325 µM) | relative viability (Cabozantinib + OSI-027; first compound 2 µM) | relative viability (Cabozantinib + Olaparib; first compound 0.02 µM) | relative viability (Cabozantinib + Olaparib; first compound 0.06325 µM) | relative viability (Cabozantinib + Olaparib; first compound 0.2 µM) | relative viability (Cabozantinib + Olaparib; first compound 0.6325 µM) | relative viability (Cabozantinib + Olaparib; first compound 2 µM) | relative viability (Zosuquidar + Pictilisib; first compound 0.01 µM) | relative viability (Zosuquidar + Pictilisib; first compound 0.03162 µM) | relative viability (Zosuquidar + Pictilisib; first compound 0.1 µM) | relative viability (Zosuquidar + Pictilisib; first compound 0.3162 µM) | relative viability (Zosuquidar + Pictilisib; first compound 1 µM) | relative viability (Zosuquidar + Olaparib; first compound 0.01 µM) | relative viability (Zosuquidar + Olaparib; first compound 0.03162 µM) | relative viability (Zosuquidar + Olaparib; first compound 0.1 µM) | relative viability (Zosuquidar + Olaparib; first compound 0.3162 µM) | relative viability (Zosuquidar + Olaparib; first compound 1 µM)
NCI-H1437 | 0.896 | 0.963 | 0.882 | 0.921 | 0.922 | 0.656 | 0.633 | 0.655 | 0.615 | 0.607 | 0.464 | 0.411 | 0.453 | 0.628 | 0.506 | 0.591 | 0.646 | 0.669 | 0.604 | 0.662
EKVX | 0.655 | 0.981 | 0.637 | 0.679 | 0.778 | 1.04 | 1.01 | 0.792 | 0.969 | 0.805 | 0.427 | 0.446 | 0.346 | 0.455 | 0.444 | 0.854 | 0.833 |  | 0.913 | 0.847
NCI-H596 | 0.922 | 0.738 | 0.65 | 0.667 | 0.54 | 0.75 | 0.768 | 0.756 | 0.7 | 0.793 | 0.439 | 0.432 | 0.36 | 0.401 | 0.414 | 0.651 | 0.607 | 0.67 | 0.696 | 0.666
NCI-H1993 | 0.511 | 0.528 | 0.569 | 0.519 | 0.543 | 1.03 | 0.975 | 0.75 | 0.785 | 0.981 | 0.766 | 0.913 | 0.804 | 0.875 | 0.644 | 0.949 | 1.01 |  | 1.19 | 1.05
HCC-78 |  | 0.439 | 0.287 | 0.291 | 0.258 |  | 0.886 | 0.753 | 0.443 | 0.405 | 0.211 | 0.235 |  | 0.232 | 0.402 | 0.939 |  |  | 0.862 | 0.846
NCI-H2087 | 0.364 | 0.549 | 0.637 | 0.562 | 0.633 | 0.702 | 0.643 | 0.622 | 0.523 | 0.605 | 0.894 | 0.844 | 0.791 | 1 | 0.853 | 0.586 | 0.557 | 0.603 | 0.578 | 0.539
H3255 | 0.527 | 0.662 |  | 0.621 | 0.613 | 0.583 | 0.613 |  | 0.599 | 0.611 | 0.49 | 0.565 | 0.412 | 0.526 | 0.42 | 0.549 | 0.559 | 0.558 | 0.553 | 0.541
NCI-H2126 |  | 0.798 | 0.706 | 0.71 | 0.884 | 0.937 | 0.932 | 0.865 | 0.938 | 0.946 | 0.479 | 0.505 | 0.404 | 0.494 | 0.539 | 0.909 | 0.868 | 0.849 | 0.922 | 0.917
LC-2-ad |  | 0.933 | 0.74 | 0.839 | 0.729 | 0.754 | 0.735 | 0.847 | 0.829 | 0.691 | 0.386 | 0.566 | 0.41 | 0.493 | 0.524 | 0.689 | 0.67 | 0.693 | 0.716 | 0.719
SW 1573 | 0.59 | 0.891 | 0.669 | 0.606 | 0.492 | 0.455 | 0.516 | 0.447 | 0.488 | 0.384 | 0.425 | 0.465 | 0.446 | 0.626 | 0.597 | 0.427 | 0.357 | 0.544 | 0.471 | 0.446
EBC-1 |  |  |  |  |  | 0.748 | 0.452 | 0.16 | 0.136 | 0.123 | 0.41 | 0.52 | 0.395 | 0.458 | 0.377 | 0.692 | 0.797 | 0.638 | 0.827 | 0.705
HCC-15 | 0.477 | 0.744 | 0.66 | 0.657 | 0.622 | 0.745 | 0.755 | 0.73 | 0.719 | 0.692 | 0.686 | 0.778 | 0.753 | 0.801 | 0.854 | 0.717 | 0.725 | 0.799 | 0.72 | 0.747
NCI-H1650 | 0.597 | 0.724 | 0.438 | 0.622 | 0.484 | 0.831 | 0.958 | 0.713 | 0.753 | 0.809 | 0.555 | 0.688 | 0.531 | 0.686 | 0.586 | 0.95 | 0.812 | 0.725 | 0.714 | 0.742
COR-L 105 | 0.682 | 0.785 |  | 0.667 | 0.71 | 0.75 | 0.688 | 0.742 | 0.663 | 0.805 | 0.404 | 0.383 | 0.418 | 0.492 | 0.351 | 0.641 | 0.711 | 0.662 | 0.761 | 0.582
NCI-H650 |  | 0.567 | 0.552 | 0.544 | 0.535 | 0.38 | 0.373 | 0.398 | 0.386 | 0.35 | 0.787 | 0.789 |  | 1.05 | 0.942 | 0.393 | 0.393 | 0.394 | 0.454 | 0.369
LXF-289 | 0.612 | 0.856 | 0.753 | 0.816 | 0.78 | 1.13 | 1.22 | 1.06 | 0.979 | 1.07 | 0.767 | 0.776 | 0.747 | 0.818 | 0.781 | 1.01 | 1.03 | 1.09 | 1.09 | 1
NCI-H1703 |  |  |  |  |  | 0.398 | 0.232 | 0.224 | 0.215 | 0.149 | 0.239 | 0.238 | 0.244 | 0.233 | 0.238 | 0.413 | 0.421 | 0.394 | 0.858 | 0.451
